Patent US20260283924A1, “TOPICAL COMPOSITIONS FOR PROMOTING HAIR GROWTH” (ESTETRA SRL, priority 2023, published 2026)

Legend:
[1] = Antioxidant activity measured with Skin-Biosense sensor; settings: H2O2 5 mM
Experimental: The antioxidant activity of E4 was evaluated using the Skin-Biosense® sensor, a technology developed by Qima Life Sciences (Gencay, France). This electrochemical sensor measures the electron transfer between two conductive elements: the sensor and a solution of H2O2. The H2O2 solution is used as a marker for the determination of the detoxification power: as H2O2 is one of the most oxidizing non-radical species, any molecule capable of decreasing its concentration can be considered as an antioxidant. When a sample is in the presence of H2O2, all its antioxidative species spontaneously react with it and decrease its quantity. As the area of the peak measured by the sensor is directly proportional to H2O2 concentration, the detoxifying activity of a compound is evaluated by its modulation of the peak area.
H2O2 5 mM in electrolytic ethanol solution was mixed with E4 in electrolytic ethanol solutions at several concentrations (0.16-0.5-1.6-5-16-50 mM), and the H2O2 oxidation peaks area were measured. The power of the antioxidant activity was calculated by comparing the peak area of the H202 solution with the peak area of the H2O2 solution mixed with an E4 solution.

[2] = test system: human anagen VI scalp HFs (healthy female donors); assay: Healthy female donor hair follicle organ culture (ex vivo model), Example 7; assay type: cell-based; settings: for hair shaft production: vs vehicle
Experimental: 12-44 full-length frontotemporal hair follicles (HF) were obtained from four healthy human female donors >50 years old. […] Donor 2:29; Donor 3:44; Donor 4:32). After microdissection from skin as described in the art (Edelkamp et al., Methods Mol Biol, 2020, 2154:105-119; and Langan et al., Exp Dermatol, 2015 December; 24(12):903-1), HFs were placed in adequate culture medium and allowed a 24 h rest period to allow them to recover from the trauma of microdissection. Test substance (either vehicle (0.3% EtOH) or E4 at concentrations of 30 μM, 3 μM or 300 nM) was added to the medium at the end of the 24 h. Total culturing time was 5-9 days depending on the stage of the HFs in the vehicle group. The experimental design for a 6-days HF organ culture experiment is depicted in FIG. 9.
This model allows to assess if E4 treatment is able to prolong anagen and/or to delay catagen initiation in healthy female subjects. Clinically, hair loss is associated with a reduction of HFs in anagen or with a shortening of anagen duration. Promoting anagen might thus limit hair loss. The following parameters were investigated:
To determine the HF length, each HF was measured from the end of the bulb connective tissue sheath to the end of the distal outer root sheath (ORS), using a digital light microscope at 50× magnification (VHX 900 Keyence Corporation, Osaka, Japan) and the affiliated software (Edelkamp et al., Methods Mol Biol, 2020, 2154:105-119; and Langan et al., Exp Dermatol, 2015 December; 24(12):903-1). Measurements were obtained at baseline, after 24 h rest period and subsequently every 24-48 h during the entire duration of the experiment. Elongation is expressed as millimeters of growth and/or as percentage elongation from the baseline measurement.
Hair cycle staging and calculation of hair cycle score is indicative of hair cycle progression and anagen-catagen transition (Langan et al., Exp Dermatol, 2015). Hair cycle staging and hair cycle scoring was performed at the end of the culture. The hair cycle stage of each HF was determined according to several established macroscopic and microscopic parameters (Langan et al Exp Dermatol, 2015). Microscopic hair cycle staging was determined using Ki-67/TUNEL immunohistology and Masson-Fontana histochemistry. Hair cycle staging was analyzed by calculating the percentage of HFs in each hair cycle stage. Hair cycle score was determined by giving an arbitrary score to each hair cycle stage as following: anagen: 100, early catagen: 200, mid catagen: 300, late catagen: 400, dystrophic 500.
Germinative hair matrix keratinocytes proliferate mostly during anagen. […] Apoptosis of hair matrix keratinocytes is used as an additional indicator of anagen/catagen transition.
Proliferation was assessed by quantification of the percentage of hair matrix keratinocytes in a clearly specified area (germinative hair matrix keratinocytes, below the Auber's line) that were positive for the proliferation marker Ki67, whereas apoptosis was assessed using TUNEL (TdT-mediated dUTP-biotin nick-end labelling) immunofluorescence in the same keratinocyte population (below the Auber's line) and in the precortical hair matrix keratincoytes (above the Auber's line) (Langan et al., Exp Dermatol 2015) (FIG. 11).
Alkaline phosphatase is an indicator of DP inductivity (Yang, J Dermatol Sci, 2010 January; 57(1):2-11). Alkaline phosphatase in situ activity was measured in the DP.
Versican, a large chondroitin sulfate proteoglycan molecule, is expressed in DP in anagen HFs and diminishes in catagen HFs and its expression correlates with hair inductive properties (Yang, J Dermatol Sci 2010). Versican intensity was analyzed in the DP.
CD34 is a marker expressed by the progeny of HF bulge stem cells. It is expressed in the most external layer of the outer root sheet (ORS) below the isthmus (sub-bulge to suprabulbar regions) (Purba et al., BioEssays, 2014 May; 36(5):513-25). […]

[3] = 300 nM and 30 μM, tendentially vs vehicle
[4] = 300 nM, 3 μM, 30 μM, listed as Estetrol
[5] = 3 μM, significantly vs vehicle, listed as estetrol

With `C[C@]12CC[C@@H]3c4ccc(O)cc4CC[C@H]3[C@@H]1[C@@H](O)[C@@H](O)[C@@H]2O` [Formulation E4, 1,3,5 (10)-estratrien-3,15alpha,16alpha,17beta-tetrol] the “antioxidant activity (in words)” value ([1]; E4 0.16-50 mM) was “potent antioxidant activity”, the antioxidant activity ([1]; highest E4 concentration, 50000 µM) was 100% and the “antioxidant activity, mean power” value ([1]; molar ratio E4/H2O2 of 1) was 77.5%. For the same compound, the “total number of cells in the DP stalk” value ([2]; 300 nM and 3 μM) was “significantly reduced the total number of cells in the DP stalk”, the “hair matrix keratinocytes proliferation (Ki-67)” value [2, 3] was “increased hair matrix keratinocytes proliferation” and the “microscopic hair cycle staging: anagen” value [2, 3] was “prolonged anagen”. For the same compound, the “percentage of CD34 positive cells, suprabulbar ORS” value [2, 3] was “increased the percentage of CD34 positive cells”, the “microscopic hair cycle staging: anagen” value ([2]; 300 nM and 30 μM, tendentially vs vehicle, listed as estetrol) was “maintain longer HFs in anagen” and the “density of cells in the inductive dermal cup” value ([2]; 300 nM, 3 μM, 30 μM) was “no significant impact on the density of cells in the inductive dermal cup”. The “hair matrix keratinocytes apoptosis (TUNEL)” value ([2]; 300 nM, 3 μM, 30 μM) was “without affecting hair matrix keratinocytes apoptosis”, the “percentage of K15 positive cells, suprabulbar ORS” value ([2]; 300 nM, 3 μM, 30 μM) was “did not have any effect on the percentage of K15 positive cells” and the “hair matrix keratinocytes apoptosis (TUNEL)” value [2, 4] was “apoptosis was not affected”. The hair shaft production ([2]; 300 nM, 3 μM, 30 μM) was “did not modify hair shaft production”, the hair shaft production [2, 4] was “does not impact hair shaft production” and the “proliferation of K15 positive cells (Ki-67), suprabulbar ORS” value ([2]; 300 nM, significantly vs vehicle) was “decreased their proliferation”. For the same compound, the “percentage of K15 positive cells, bulge basal layer” value ([2]; 3 μM) was “significantly decreased the percentage of K15 positive cells”, the “proliferation of K15 positive cells (Ki-67), bulge basal layer” value ([2]; 3 μM and 300 nM, tendentially vs vehicle) was “increased their proliferation” and the “hair matrix keratinocytes proliferation (Ki-67)” value ([2]; 3 μM, significantly vs vehicle) was “increased hair matrix keratinocytes proliferation”. The “microscopic hair cycle staging: anagen” value ([2]; 3 μM, significantly vs vehicle) was “prolonged anagen”, the “percentage of CD34 positive cells, suprabulbar ORS” value ([2]; 3 μM, significantly vs vehicle) was “increased the percentage of CD34 positive cells” and the “hair matrix keratinocytes proliferation (Ki-67)” value [2, 5] was “increases hair matrix keratinocytes proliferation”. For the same compound, the “microscopic hair cycle staging: anagen” value [2, 5] was “maintain longer HFs in anagen”, the “proliferation of K15 positive cells (Ki-67), suprabulbar ORS” value ([2]; 3 μM, tendentially vs vehicle) was “decreased their proliferation” and the “proliferation of K15 positive cells (Ki-67), bulge basal layer” value ([2]; 30 μM, significantly vs vehicle) was “increased their proliferation”. For the same compound, the “density of cells in the DP stalk” value ([2]; all concentrations) was “tendentially decreased the density of cells”, the “alkaline phosphatase activity in DP cells” value ([2]; all tested concentrations) was “tendentially increased” and the “density of cells in the DP” value ([2]; all tested concentrations) was “did not strikingly affect the density of cells in the DP”. The “versican expression in DP cells” value ([2]; all tested concentrations) was “tendentially increased versican expression”.
